Measurements published in US5633230A, “Treatment of cytomegalovirus infection” (priority 1994, dated 1997).

Columns and labels:
CMV strain 759^r D100 = test: plaque reduction assay, ganciclovir-resistant strain 759^r D100; assay type: cell-based, human CMV; conditions: Human betaherpesvirus 5, MRC5
Method: (§1) The anti-CMV activity of peptide AV-9 was evaluated against two ganciclovir-resistant and two foscarnet-resistant laboratory strains of human CMV in the continuous, human embryonic lung cell line MRC-5.
(§2) To perform the studies, peptide AV-9 was dissolved as a solid in sterile, deionized water to a final stock concentration of 10 mM. This stock solution was subsequently diluted in cell culture medium to obtain the test concentrations used in the study. Ganciclovir (GCV) was dissolved in sterile, deionized water, and the drug concentration measured spectrophotometrically (7.8mM). Foscarnet (phosphonoformic acid, PFA) was dissolved in sterile, deionized water to a final concentration of 100 mM. Aliquots of the stock solutions were stored at -70° C.
(§3) Drug-resistant human CMV strains 759^r D100, GDG^r K17, PFA^r D100 and PFA^r B300 were obtained from Dr. Donald M. Coen, Harvard Medical School, Boston, Mass. […]
(§4) Anti-CMV activity of peptide AV-9, ganciclovir (GCV) and foscarnet (PFA) was assessed by standard plaque reduction assay using 24-well microtiter plates. […]
(§5) MRC-5 cells (4-5×10^5 per well) were grown for 24 hours at 37° C. in 5% CO2 atmosphere in D-MEM/F-12FBS medium containing varying concentrations of drug. […] Vital plaques were counted under a microscope after removing the culture medium from the wells, staining the cells with 1.1% Crystal Violet solution, and washing twice with tap water. […]

[1] = tested on: Smith strain of murine CMV; test: murine CMV infection in cyclophosphamide-immunosuppressed mice; assay type: in vivo, BALB/c mice
Source text: This immunosuppression model mimics the human patient situation, wherein the HCMV-induced disease in immunosuppressed individuals can often be fatal. The particular model used for evaluating potential antiviral activity has been described by Smee et al in J. Infect. Dis., 1991, 164: 958.
The Smith strain of murine CMV, obtained originally from the American Type Culture Collection (Rockville, Md.) was used. A mouse salivary gland preparation was used for the virus pool. An inoculation of 2×10^4 plaque forming units of the virus was used in the antiviral study. Female BALB/c mice weighing 10-12 g were quarantined 24 hr prior to use, and maintained on Wayne Lab Blox and tap water ad libitum the duration of the study.
Ganciclovir (DHPG) was purchased from a commercial source, and cyclophosphamide was purchased from Sigma Chemical Co. (St. Louis, Mo.).
To determine tissue virus titre, homogenates of infected mouse organs were titrated for virus using C127/I cells in 96-well microplates. Each tissue sample was homogenized and titrated separately with 3 micro wells used per dilution; plates were read by microscopic examination for viral-induced cytopathic effect, with 50% end points determined by the Reed-Muench method. Mean viral titers were expressed at 50% cell culture infectious doses (CCID50)/gram of tissue.
For statistical evaluation, increases in mean day to death and reductions in viral titers were assessed using the two-tailed Mann-Whitney U test. Total survivor increases were evaluated by chi square analysis with Yates'.

CMV strain AD-169 [2] = test: plaque reduction assay, CMV AD-169 in HFF cells; assay type: cell-based, human CMV; conditions: Human betaherpesvirus 5, AD169, CMV AD-169, HFF
Method: (§6) The following procedures were then used to determine inhibitory effects of AV-9 on the replication of CMV. […] This was accomplished by diluting the stock peptide solution in growth medium (10% fetal bovine serum and 10 μg/ml gentamicin in Dulbecco's MEM (DMEM)) used to overlay the monolayers.
[…] Virus was then allowed to adsorb for 1 hour at 37° C. The virus inoculum was removed and the monolayers were overlayed with DMEM containing 2% FBS, 10 ug/ml gentamicin and a specified concentration of AV-9. Virus was next allowed to replicate for 7 to 10 days until the plaques were judged to be well developed, and then the monolayers were fixed and stained with a solution of 1% crystal violet in 1% formaldehyde,70% ethanol. Finally, plaques (each representing a single viable virion) were counted and checked microscopically.
(§7) In a like manner, plaque reduction assays were also performed against other CMV strains and another CMV host, with comparison against ganciclovir (GCV) and foscarnet (FCV).

CMV strain GDG^r K17 = test: plaque reduction assay, ganciclovir-resistant strain GDG^r K17; assay type: cell-based, human CMV; conditions: Human betaherpesvirus 5, MRC5
Method: as §1, §2, §3, §4, §5

CMV strain AD-169 [3] = test: CPE assay, CMV AD-169 in HFF cells; assay type: cell-based; conditions: Human betaherpesvirus 5, AD169, CMV AD-169, HFF (human foreskin fibroblast), without 24 h drug pretreatment
Source text: *CPE assay, all others are plaque reduction assays.

[4] = toxicity control mice, immunosuppressed, uninfected
Method: The mice were immunosuppressed by intraperitoneal (i.p.) injection with 100 mg/kg/day of cyclophosphamide administered on days -1, +3, +6, +10, +14 and +18 relative to virus inoculation. […] In a second portion of the study, the compound was administered i.p. in a dose of 0.1 mg/kg/day once daily from day -2 through +10. Ganciclovir in a dose of 50 mg/kg/day was injected i.p. once daily for 10 days beginning 24 hr post-virus exposure (days +1→+10). A total of 15 infected mice/dose were used. […] Five toxicity control mice were used at each dose; these mice were treated in parallel with the infected mice, and were weighed on the initial day of treatment and again 24 after the final treatment. […] Normal controls were weighed and held in parallel with the toxicity controls.

CMV strain AD-169 [5] = test: plaque reduction assay, CMV AD-169 in MRC-5 cells; assay type: cell-based, human CMV; conditions: Human betaherpesvirus 5, AD169, MRC5, CMV AD-169, MRC-5 (human embryonic lung), 24 h drug pretreatment
Method: as §6
After pretreatment with AV-9, the monolayers were overlaid with 0.1 ml log10 dilutions of virus (CMV strain AD-169) ranging from 10^-1 to 10^-6. Virus was then allowed to adsorb for 1 hour at 37° C. The virus inoculum was removed and the monolayers were overlayed with DMEM containing 2% FBS, 10 ug/ml gentamicin and a specified concentration of AV-9. Virus was next allowed to replicate for 7 to 10 days until the plaques were judged to be well developed, and then the monolayers were fixed and stained with a solution of 1% crystal violet in 1% formaldehyde,70% ethanol. Finally, plaques (each representing a single viable virion) were counted and checked microscopically.
as §7

CMV strain PFA^r D100 = test: plaque reduction assay, foscarnet-resistant strain PFA^r D100; assay type: cell-based, human CMV; conditions: Human betaherpesvirus 5, MRC5
Method: as §1, §2, §3, §4, §5

CMV strain PFA^r B300 = test: plaque reduction assay, foscarnet-resistant strain PFA^r B300; assay type: cell-based, human CMV; conditions: Human betaherpesvirus 5, MRC5
Method: as §1, §2, §3, §4, §5

[6] = 50 mg/kg/day i.p. days +1 to +10, 9 days after virus challenge

Row | Compound | IC50 (CMV strain 759^r D100) [µM] | days after initiation of infection until first deaths ([1]; 50 mg/kg/day i.p. days +1 to +10) [days] | Tissue Virus Titer ± S.D., Lung [1, 6] [log10 CCID50/g] | Tissue Virus Titer ± S.D., Salivary Gland [1, 6] [log10 CCID50/g] | Tissue Virus Titer ± S.D., Spleen [1, 6] [log10 CCID50/g] | Surv/Total ([1]; infected mice, 50 mg/kg/day i.p., days +1 through +10) | Mean Day to Death ± S.D. ([1]; infected mice, 50 mg/kg/day i.p., days +1 through +10, P<0.01 vs saline) [days] | IC50 (CMV strain AD-169 [2]) [nM] | IC50 (CMV strain GDG^r K17) [µM] | IC50 (CMV strain AD-169 [3]) [µM] | Mean Body Weight Change ([4]; 50 mg/kg/day i.p. days +1 to +10, start of treatment to 24 hr after final treatment) [g] | Surv/Total ([4]; toxicity controls, 50 mg/kg/day i.p., days +1 through +10) | IC50 (CMV strain AD-169 [5]) [µM] | IC50 (CMV strain PFA^r D100) [µM] | IC50 (CMV strain PFA^r B300) [µM]
1 | Nc1nc2c(ncn2COC(CO)CO)c(=O)[nH]1 [GCV, 9-[(1,3-dihydroxy-2-propoxy)methyl]guanine, reference compound] | 30.5 | ≥ 21 | 0 ± 0.0 | 3.5 ± 0.9 | 0.5 ± 1.2 | 0/10 | 22.9 ± 1.1 | 2000 | 6.1 | 5.8 | 4.2 | 5/5 |  |  | 
2 | O=C(O)P(=O)(O)O [FCV, phosphonoformic acid] |  |  |  |  |  |  |  |  |  |  |  |  | 96 | 234 | 385
